Measured values published in patent US6399574B1 (priority 1997, dated 2002).
“And” between values parts separate entries of the source, which are not always exact repeats. Equal values may be shown once.

What was measured:
[1] = tested on: Frings audiogenic seizure-susceptible mice; details: mouse, in vivo
[2] = tested on: Frings audiogenic seizure susceptible mice; details: mouse, in vivo

Row | Structure (SMILES) | toxicity (rotorod) [1] | animals protected [2]
1 | CC1(C)O[C@@H]2[C@@H](CO[C@@]3(COS(N)(=O)=O)OC(C)(C)O[C@@H]23)O1 [Topiramate, reference compound] | no marked | –
2 | NC(=O)OCC(COC(N)=O)c1ccccc1 [Felbamate, reference compound] | no marked | 5/8 protected and 4/8 protected
